# Test results as given in EPA's ToxValDB 9.5.
# Experiments:
# Rattus norvegicus [1] = system: Rattus norvegicus
# Rattus norvegicus [2] = conditions: M/F; for LEL / NOEL: duration: 2 years
# Rattus norvegicus [3] = conditions: for NOAEL: M/F
# Rattus norvegicus [4] = conditions: repeat dose other; oral
# Rattus norvegicus [5] = conditions: subchronic; duration: 13 weeks; oral; gavage; M/F; Fischer 344; Deaths + Clinical Observation: Tremors Poor motor response Ocular discharge + Body Weight Changes: decrease + Urinalysis: Coproporphyrin …
# Rattus norvegicus [6] = conditions: uterotrophic; duration: 2 days; injection; subcutaneous; Active
# [7] = chronic, oral, diet, reduced body weight
# [8] = chronic, oral, diet, glomerulonephritis, atrophic testes, eye keratitis reduced body weight and organ weight
# [9] = chronic, oral, diet, RBC, ChE inhibition + reduced hemoglobin, hematocrit and RBCs
# [10] = reproduction developmental, inhalation, increased liver weight in p1 males
# [11] = chronic, oral, diet, Liver cytomegaly, fatty metamorphosis, angiectasis + thyroid cystic follicles
structure (smiles),measurement,setting,value
"CC(C)Nc1nc(Cl)nc(NC(C)C)n1 [2,4-Bis(isopropylamino)-6-chloro-1,3,5-triazine]",NOEL,"Rattus norvegicus [1]; chronic, duration: 2 years, oral, diet, Whole body: Decreased weight gain",5 mg/kg-day
same,LEL,Rattus norvegicus [2]; [7],50 mg/kg-day
same,NOEL,Rattus norvegicus [2]; [7],5 mg/kg-day
CCOP(=S)(OCC)SCCSCC [Disulfoton],LOAEL,"Rattus norvegicus [1]; chronic, duration: 2 years, oral, diet, Blood: Cholinesterase inhibition + Eye: Degeneration",0.04 mg/kg-day
same,LOAEL,"Rattus norvegicus [3]; chronic, duration: 2 years, oral, diet, F, Fischer 344, neurological",0.06 mg/kg-day
same,NOAEL,"Rattus norvegicus [3]; developmental, duration: 364 days, oral, diet, Sprague-Dawley, neurological, developmental",0.009 mg/kg-day
same,NOAEL,"Rattus norvegicus [3]; short-term, duration: 3 weeks, inhalation, Wistar TNO/W 74 albino, neurological",0.1 mg/m3
same,NOAEL,"Rattus norvegicus [3]; short-term, duration: 3 weeks, inhalation, chamber, Wistar TNO/W 74 albino, neurological",0.1 mg/m3
same,LEL,"Rattus norvegicus [2]; chronic, oral, diet, cholinesterase inhibition, optic nerve degeneration",0.04 mg/kg-day
O=C1C[C@@H]2OCC=C3CN4CC[C@]56c7ccccc7N1[C@H]5[C@H]2[C@H]3C[C@H]46 [Strychnine],LOAEL,"Rattus norvegicus [1]; short-term, duration: 28 days, oral, gavage, Unspecified: Histopathology + Unspecified: Toxicity",2.5 mg/kg-day
same,LOAEL,"Rattus norvegicus [2]; subchronic, oral, toxicity/histopathology",2.5 mg/kg-day
Cn1cc(-c2ccccc2)c(=O)c(-c2cccc(C(F)(F)F)c2)c1 [1-Methyl-3-phenyl-5-(3-(trifluoromethyl)phenyl)-4-pyridone],NOEL,"Rattus norvegicus [1]; chronic, duration: 2 years, oral, diet, Kidney: Glomerulonephritis + Organs: Decreased weight + Testis: Atrophy + Whole body: Decreased weight",15.6 mg/kg-day
same,LEL,Rattus norvegicus [2]; [8],25 mg/kg-day
same,NOEL,Rattus norvegicus [2]; [8],8 mg/kg-day
"Clc1cc2oc3c(Cl)c(Cl)c(Cl)cc3c2cc1Cl [2,3,4,7,8-Pentachlorodibenzofuran]",LOAEL,"Rattus norvegicus [3]; chronic, duration: 105 weeks, oral, gavage, F, Harlan Sprague-Dawley, hepatic, endocrine",6e-06 mg/kg-day
same,NOAEL,"Rattus norvegicus [3]; developmental, duration: 1 days, oral, gavage, Wistar, developmental",0.0005 mg/kg-day
same,LOAEL,Rattus norvegicus [4],0.00016 mg/kg-day
same,NOAEL,Rattus norvegicus [4],1.6e-05 mg/kg-day
COP(=S)(OC)Oc1ccc([N+](=O)[O-])cc1 [Methyl parathion],NOAEL,"Rattus norvegicus [1]; subchronic, duration: 90 days, oral, diet, Erythrocytes: Cholinesterase inhibition",0.24 mg/kg-day
same,NOAEL,"Rattus norvegicus [3]; chronic, duration: 28 months, oral, diet, Sprague-Dawley, hematological",0.025 mg/kg-day
same,LOAEL,"Rattus norvegicus [3]; subchronic, duration: 13 weeks, oral, gavage, M, Wistar, neurological",0.22 mg/kg-day
same,LEL,Rattus norvegicus [2]; [9],0.25 mg/kg-day
same,NOEL,Rattus norvegicus [2]; [9],0.025 mg/kg-day
"Clc1ccc(Cl)cc1 [1,4-Dichlorobenzene]",NOAEL,"Rattus norvegicus [1]; chronic, inhalation, intermittent, Liver: Increased weight in male parents",75 mg/m3
same,LOAEL,Rattus norvegicus [2]; [10],902 mg/m3
same,NOAEL,Rattus norvegicus [2]; [10],301 mg/m3
same,NOEL,Rattus norvegicus [5],< 300 mg/kg-day
ClC1(Cl)C2(Cl)C3(Cl)C4(Cl)C(Cl)(Cl)C5(Cl)C3(Cl)C1(Cl)C5(Cl)C24Cl (configuration not stated) [Mirex],NOAEL,"Rattus norvegicus [1]; chronic, duration: 2 years, oral, diet, Liver: Angiectasis + Liver: Cytomegaly + Liver: Fatty metamorphosis + Thyroid: Cystic follicles",0.07 mg/kg-day
same,NOAEL,"Rattus norvegicus [3]; chronic, duration: 2 years, oral, diet, Fischer 344, hepatic",0.075 mg/kg-day
same,LEL,Rattus norvegicus [6],1 mg/day
same,LOAEL,Rattus norvegicus [2]; [11],0.7 mg/kg-day
same,NOAEL,Rattus norvegicus [2]; [11],0.07 mg/kg-day
